Laboratory results: patent US11986532B2 (Arvinas Operations, Inc., priority 2021, dated 2024)
Like-named read-outs stand apart in the source and are kept apart here.

Target: T1, BCL6 (Homo sapiens, UniProt P41182)
T1 construct: endogenous in cells; host or cells: T47D breast cancer epithelial cells
Assay: Immunofluorescence protocol for high content imaging of BCL6 (degradation) in T47D cells, 3 days compound treatment
Format: cell-based
Conditions: for DC50: read-out: Mean DC50 (nM)* category; for Dmax: read-out: Mean Dmax (%)** category
Protocol: Immunofluorescence Protocol for High Content Imaging of BCL6
T47D cells were seeded in 100 μl volume of RPMI1640-10% FBS in a 96-well black/clear bottom plates for adherent lines (Corning #3904).
Day 1. T47D breast cancer epithelial cells were seeded at a density so that confluence is ˜70-90% at endpoint. Cells were seeded at 7K/0.1 ml/well the morning prior to the addition of exemplary bifunctional degradation compounds.
Day 2. Prepare an 11 point 3-fold serial dilution of exemplary bifunctional compound in DMSO and aliquot an appropriate volume to cell growth media to generate a 2× final concentration of exemplary bifunctional compound. Add an equal volume (0.1 ml) of 2× exemplary bifunctional compound/media mix to previously plated cells, for a final top concentration in aqueous cell growth media of 0.1 or 1 μM. Incubate for 3 days at 37° C., 5% CO2.
Day 5 Immunofluorescence. Discard cell media. Wash wells with 200 μl of room temperature phosphate-buffered saline (PBS). Prepared 4% paraformaldehyde (PFA) from 16% PFA (Electron Microscopy Sciences #15710) using 1×PBS. Fifty μl of 4% PF was added to each well and incubate for 15 minutes at room temperature to fix the cells. The PFA was aspirated and the cells washed twice with PBS (200 μl)).
Prepared 0.1% Triton X-100 in PBS using 10% triton X-100 stock. The cells were permeabilized by adding 100 ul of the 0.1% Triton X-100 in PBS to each well to permeabilize cells and incubating at room temperature for 15 minutes. Cells were washed twice with PBS.
Prepared 3% BSA/PBS (from Thermofisher #37515 Blocker BSA in TBS, 10%), and 100 ul was added to each well. The cells were incubated for at least 1 hour at room temperature.
Prepared 1% BSA/PBS using Blocker BSA/PBS, and the 3% BSA/PBS removed from the wells.
For no primary antibody controls, 50 μl 1% BSA/PBS was added.
Primary antibody (BCL6 Rb Ab, CST-14895, Cell Signaling) was diluted 1:300 in 1% BSA/PBS using Blocker BSA/PBS.
Fifty μl of primary antibody added to all remaining wells (i.e., all wells other than the primary antibody controls) and the cells were incubated overnight at 4° C. with slow orbital movement.
Day 6. Contents of the wells was removed and the cells washed four times with 200 ul PBS. 1% BSA/PBS was prepared using Blocker BSA in PBS.
Diluted secondary antibody goat anti-Rb IgG Alexa-488 1:1000, and cell mask-Alexa-647 1:3000 in 1% BSA/PBS in the same mix. Add 50 μl to each well and incubate at room temperature for 1 hour in the dark.
Cells were washed three times with 200 ul PBS, and then incubated for 10 minutes with 100 ul Hoechst dye at 1 μg/mL (20 mM stock) to stain cell nuclei. Wells were then washed with 200 μl PBS, and 100 ul of PBS was added to each well and the plate covered plate with a plastic opaque cover. Plates were stored at 4° C. and covered in aluminum foil until imaged.
Plates were equilibrated to room temperature prior to reading. The bottom of the plate was wiped with 70% isopropanol immediately prior to imaging.
10×, 4 fields/well, include Top hat smoothing in the analysis protocol.
16% paraformaldehyde: Electron Microscopy Sciences #15710
Hoechst: Thermofisher #62249
Blocker BSA in PBS, 10%: Thermofisher #37515
Blocker BSA in TBS, 10%: Thermofisher #37520
Goat anti-rabbit or mouse AlexaFluor-488: Thermofisher #A11008
Cell mask deep red AlexaFluor-647: Thermofisher #C10046
Wash buffer, PBS: 20×PBS, Thermofisher

[1] = T47D cells, 3 days compound treatment

SMILES	DC50 [1]	Dmax [1]	Dmax (T47D)	DC50
CNC(=O)COc1cc2cc(Nc3nc(N4CCC(CN5CC6(CCN(c7cc(F)c8c(c7)CN(C7CCC(=O)NC7=O)C8=O)CC6)C5)CC4)ncc3Cl)ccc2n(C(C)C)c1=O (centres unmarked) [Compound 86, 2-{[6-({5-chloro-2-[4-({7-[2-(2,6-dioxopiperidin-3-yl)-7-fluoro-1-oxo-2,3-dihydro-1H-isoindol-5-yl]-2,7-diazaspiro[3.5]nonan-2-yl}methyl)piperidin-1-yl]pyrimidin-4-yl}amino)-2-oxo-1-(propan-2-yl)-1,2-dihydroquinolin-3-yl]oxy}-N-methylacetamide]	< 10 nM	50 to 70%	–	–
CNC(=O)COc1cc2cc(Nc3nc(N4CCN(C(C)(C)C5CCN(c6ccc7c(c6OC)CN(C6CCC(=O)NC6=O)C7=O)CC5)CC4)ncc3Cl)ccc2n(C(C)C)c1=O (centres unmarked) [Compound 78, 2-{[6-({5-chloro-2-[4-(2-{1-[2-(2,6-dioxopiperidin-3-yl)-4-methoxy-1-oxo-2,3-dihydro-1H-isoindol-5-yl]piperidin-4-yl}propan-2-yl)piperazin-1-yl]pyrimidin-4-yl}amino)-2-oxo-1-(propan-2-yl)-1,2-dihydroquinolin-3-yl]oxy}-N-methylacetamide]	< 10 nM	< 50%	–	–
CNC(=O)COc1cc2cc(Nc3nc(N4CCC(O[C@H]5C[C@H](N6CCN(c7ccc8c(c7)C(=O)N(C7CCC(=O)NC7=O)C8=O)[C@@H](C)C6)C5)CC4)ncc3Cl)ccc2n(C(C)C)c1=O (stereo partly drawn) [Compound 391, 2-({6-[(5-chloro-2-{4-[(1r,3r)-3-[(3S)-4-[2-(2,6-dioxopiperidin-3-yl)-1,3-dioxo-2,3-dihydro-1H-isoindol-5-yl]-3-methylpiperazin-1-yl]cyclobutoxy]piperidin-1-yl}pyrimidin-4-yl)amino]-2-oxo-1-(propan-2-yl)-1,2-dihydroquinolin-3-yl}oxy)-N-methylacetamide]	–	–	≥ 70%	< 10 nM
CNC(=O)COc1cc2cc(Nc3nc(N4CCC(CN5CCC6(CC5)CN(c5ccc7c(c5C)C(=O)N(C5CCC(=O)NC5=O)C7=O)C6)CC4)ncc3Cl)ccc2n(C(C)C)c1=O (centres unmarked) [Compound 358, 2-{[6-({5-chloro-2-[4-({2-[2-(2,6-dioxopiperidin-3-yl)-4-methyl-1,3-dioxo-2,3-dihydro-1H-isoindol-5-yl]-2,7-diazaspiro[3.5]nonan-7-yl}methyl)piperidin-1-yl]pyrimidin-4-yl}amino)-2-oxo-1-(propan-2-yl)-1,2-dihydroquinolin-3-yl]oxy}-N-methylacetamide]	–	–	50 to 70%	< 10 nM
CNC(=O)COc1cc2cc(Nc3nc(N4CCC(O[C@H]5C[C@H](N6CC[C@H](c7ccc8c(c7)C(=O)N(C7CCC(=O)NC7=O)C8=O)[C@H](F)C6)C5)CC4)ncc3Cl)ccc2n(C(C)C)c1=O (mixture of isomers) [Compound 118]	10 to 50 nM	50 to 70%	–	–
CNC(=O)COc1cc2cc(Nc3nc(N4CCC(O[C@H]5C[C@H](N6CCN(c7ccc8c(c7F)CN([C@H]7CCC(=O)NC7=O)C8=O)[C@H](C)C6)C5)CC4)ncc3Cl)ccc2n(C(C)C)c1=O [Compound 394, 2-({6-[(5-chloro-2-{4-[(1r,3r)-3-[(3R)-4-{2-[(3S)-2,6-dioxopiperidin-3-yl]-4-fluoro-1-oxo-2,3-dihydro-1H-isoindol-5-yl}-3-methylpiperazin-1-yl]cyclobutoxy]piperidin-1-yl}pyrimidin-4-yl)amino]-2-oxo-1-(propan-2-yl)-1,2-dihydroquinolin-3-yl}oxy)-N-methylacetamide]	–	–	≥ 70%	< 10 nM
CNC(=O)COc1cc2cc(Nc3nc(N4CCC(O[C@H]5C[C@H](N6CCC(c7ccc8c(c7)C(=O)N(C7CCC(=O)NC7=O)C8=O)C6)C5)CC4)ncc3Cl)ccc2n(C(C)C)c1=O (some centres unmarked) [Compound 256, 2-({6-[(5-chloro-2-{4-[(1r,3r)-3-{3-[2-(2,6-dioxopiperidin-3-yl)-1,3-dioxo-2,3-dihydro-1H-isoindol-5-yl]pyrrolidin-1-yl}cyclobutoxy]piperidin-1-yl}pyrimidin-4-yl)amino]-2-oxo-1-(propan-2-yl)-1,2-dihydroquinolin-3-yl}oxy)-N-methylacetamide]	–	–	50 to 70%	10 to 50 nM
CNC(=O)COc1cc2cc(Nc3nc(N4CCC(F)(CN5CCC6(CC5)CCN(c5c(F)ccc7c5C(=O)N(C5CCC(=O)NC5=O)C7)CC6)CC4)ncc3Cl)ccc2n(C(C)C)c1=O (centres unmarked) [Compound 93, 2-{[6-({5-chloro-2-[4-({9-[2-(2,6-dioxopiperidin-3-yl)-5-fluoro-3-oxo-2,3-dihydro-1H-isoindol-4-yl]-3,9-diazaspiro [5.5]undecan-3-yl}methyl)-4-fluoropiperidin-1-yl]pyrimidin-4-yl}amino)-2-oxo-1-(propan-2-yl)-1,2-dihydroquinolin-3-yl]oxy}-N-methylacetamide]	≥ 100 nM	≥ 70%	–	–
CNC(=O)COc1cc2cc(Nc3nc(N4CCC(CN5CCN(c6ccc7c(c6C)C(=O)N(C6CCC(=O)NC6=O)C7=O)CC5)CC4)ncc3Cl)ccc2n(C(C)C)c1=O (centres unmarked) [Compound 403, 2-{[6-({5-chloro-2-[4-({4-[2-(2,6-dioxopiperidin-3-yl)-4-methyl-1,3-dioxo-2,3-dihydro-1H-isoindol-5-yl]piperazin-1-yl}methyl)piperidin-1-yl]pyrimidin-4-yl}amino)-2-oxo-1-(propan-2-yl)-1,2-dihydroquinolin-3-yl]oxy}-N-methylacetamide]	–	–	50 to 70%	< 10 nM
CCn1c(=O)c(OCC(=O)NC)cc2cc(Nc3nc(N4CCC(O[C@H]5C[C@H](N6CCC(c7ccc8c(c7)C(=O)N(C7CCC(=O)NC7=O)C8=O)CC6)C5)CC4)ncc3Cl)ccc21 (some centres unmarked) [Compound 5, 2-[[6-[[5-chloro-2-[4-[3-[4-[2-(2,6-dioxo-3-piperidyl)-1,3-dioxo-isoindolin-5-yl]-1-piperidyl]cyclobutoxy]-1-piperidyl]pyrimidin-4-yl]amino]-1-ethyl-2-oxo-3-quinolyl]oxy]-N-methyl-acetamide]	< 10 nM	≥ 70%	–	–
CNC(=O)COc1cc2cc(Nc3nc(N4CCC(O[C@H]5C[C@H](N6CCC(c7c(F)cc8c(c7F)CN(C7CCC(=O)NC7=O)C8=O)CC6)C5)CC4)ncc3Cl)ccc2n(C(C)C)c1=O (some centres unmarked) [Compound 116, 2-({6-[(5-chloro-2-{4-[(1r,3r)-3-{4-[2-(2,6-dioxopiperidin-3-yl)-4,6-difluoro-1-oxo-2,3-dihydro-1H-isoindol-5-yl]piperidin-1-yl}cyclobutoxy]piperidin-1-yl}pyrimidin-4-yl)amino]-2-oxo-1-(propan-2-yl)-1,2-dihydroquinolin-3-yl}oxy)-N-methylacetamide]	< 10 nM	50 to 70%	–	–
CNC(=O)COc1cc2cc(Nc3nc(N4CCN(CC5CCC6(CCN(c7ccc8c(c7)CN(C7CCC(=O)NC7=O)C8=O)C6)C5)CC4)ncc3Cl)ccc2n(C(C)C)c1=O (centres unmarked) [Compound 75, 2-{[6-({5-chloro-2-[4-({2-[2-(2,6-dioxopiperidin-3-yl)-1-oxo-2,3-dihydro-1H-isoindol-5-yl]-2-azaspiro[4.4]nonan-7-yl}methyl)piperazin-1-yl]pyrimidin-4-yl}amino)-2-oxo-1-(propan-2-yl)-1,2-dihydroquinolin-3-yl]oxy}-N-methylacetamide]	< 10 nM	50 to 70%	–	–
CNC(=O)COc1cc2cc(Nc3nc(N4CCC5(CCN(CC6(F)CCN(c7cc(F)cc8c7CN(C7CCC(=O)NC7=O)C8=O)CC6)CC5)CC4)ncc3Cl)ccc2n(C(C)C)c1=O (centres unmarked) [Compound 109, 2-{[6-({5-chloro-2-[9-({1-[2-(2,6-dioxopiperidin-3-yl)-6-fluoro-1-oxo-2,3-dihydro-1H-isoindol-4-yl]-4-fluoropiperidin-4-yl}methyl)-3,9-diazaspiro [5.5]undecan-3-yl]pyrimidin-4-yl}amino)-2-oxo-1-(propan-2-yl)-1,2-dihydroquinolin-3-yl]oxy}-N-methylacetamide]	< 10 nM	50 to 70%	–	–
